Measurements reported in patent US5672707A (priority 1991, dated 1997).
Where two headings read alike, the source gives them in different places.

Key:
in vivo = details: for LD50: in vivo, ip
Method: (§1) Psychoneurotropic activity of the declared compounds and their influence on learning and memory were observed using unbred male (18-20 g) mice and 180-200 g) rats, held at standard conditions (room temperature 21°-22° C., 12-hours lighting schedule, food and water ad libitum).
Acute toxicity was studied by the method of Kerber with intra peritoneal drug injection.

[1] = target: T1, Acetylcholinesterase, enzyme from human erythrocytes (Homo sapiens, UniProt P22303); experiment: Acetylcholinesterase inhibition, spectrophotometric technique of Ellman; format: biochemical; details: Acetylcholinesterase inhibition IC50 (M), enzyme from human erythrocytes; Table 5
T1 construct: on the enzyme from human erythrocytes; from tissue; host or cells: human erythrocytes
Method: Acetylcholinesterase inhibition under the action of preparations was assessed by the spectrophotometric technique of Ellman on the enzyme from human erythrocytes.

mice [2] = experiment: Psychotropic activity test: motor activity; format: in vivo; details: intraperitoneally, dose 1/20 of LD
mice [3] = experiment: Psychotropic activity test: arecoline induced hyperkynesis; format: in vivo; details: intraperitoneally, dose 1/20 of LD
rats = experiment: Passive avoidance test in normal rats, 50% acquisition; format: in vivo; details: for change in vivo at 0.1 mg/kg: Rattus norvegicus, ip, 20 min, read-out: Increase of the number of correct trails (% to control). Passive avoidance test (rats); for change in vivo at 0.1 mg/kg / Increase of the number of correct trails (% to control). Passive avoidance test (rats): rats, 0.1 mg/kg i.p. 20 min before training, piracetam 250 mg/kg 60 min before training
Method: as §1
The influence of drugs on reflex conditioning in rats was studied by the passive avoidance test in conditions of 50% acquisition. The effect of the compound was estimated by the increase of the relative number of learned animals with respect to that of control group. […] The other reference drug--noothropic agent piracetam--was given in the dose 250 mg/kg 60 min before training. Amnestic syndrome was stimulated by 20 days application of Sc at the daily dose of 1 mg/kg intraperitoneally. […] The passive avoidance test was performed within 24 hours after the last application of test preparations.

rat adipocytes = experiment: Lipid composition of adipocytes after incubation with compounds; format: cell-based; details: cells; Table 11
Method: Lipid regulative activity of the declared compounds--derivatives of 9-amino acridine--were evaluated in vitro[…] using rat adipocytes. Adipocytes were separated from adipose tissue of testis appendages of adult male rats. Lipid composition analysis was performed by the method of thin-layer chromatography.
Quantitative analysis of phospholipids (PL), mono- and diacylglycerides (MDG), triacylglycerides (TG), free fatty acids (FFA), free cholesterol (FCL), and methyl esters of fatty acids (MEFA) was performed by the method of spectrophotometry.

[4] = intraperitoneal injection, Table 5, read-out: LD50 (mg/kg) by Kerber
[5] = intraperitoneal injection, Table 5

T1 sequence (P22303-2 with tags, fused parts or gaps limits assumed): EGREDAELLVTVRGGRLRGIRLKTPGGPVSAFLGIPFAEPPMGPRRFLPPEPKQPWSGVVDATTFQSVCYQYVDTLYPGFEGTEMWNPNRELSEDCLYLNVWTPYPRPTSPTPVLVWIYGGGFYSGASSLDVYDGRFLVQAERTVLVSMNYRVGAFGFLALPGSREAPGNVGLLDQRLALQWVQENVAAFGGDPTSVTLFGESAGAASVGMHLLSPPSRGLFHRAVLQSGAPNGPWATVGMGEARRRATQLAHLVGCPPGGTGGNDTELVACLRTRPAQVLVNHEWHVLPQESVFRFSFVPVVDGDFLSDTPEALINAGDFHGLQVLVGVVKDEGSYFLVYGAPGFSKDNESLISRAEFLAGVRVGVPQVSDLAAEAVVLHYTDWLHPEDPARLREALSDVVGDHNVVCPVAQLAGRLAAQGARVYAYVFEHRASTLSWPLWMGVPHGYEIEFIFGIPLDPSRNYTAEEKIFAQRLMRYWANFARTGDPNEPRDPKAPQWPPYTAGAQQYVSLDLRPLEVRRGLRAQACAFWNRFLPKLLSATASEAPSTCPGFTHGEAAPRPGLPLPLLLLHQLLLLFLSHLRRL

| Compound | LD50 (in vivo; [4]) [mg/kg] | IC50 [1] [M] | Motor activity increment (% to control) (mice [2]) | Increase of duration of arecoline induced hyperkynesis (% to control) (mice [3]) | change in vivo at 0.1 mg/kg (rats) [%] | Performance of normal rats in passive avoidance test (rats) | LD50 (mg/kg) by Kerber (in vivo; [5]) [mg/kg] | Increase of the number of correct trails (% to control). Passive avoidance test (rats) (rats) | LD50 (in vivo; LD50 (mg/kg) by Kerber) [mg/kg] | FFA/TG in adipocytes (rat adipocytes) | PL/CL in adipocytes (rat adipocytes) | PL/TG in adipocytes (rat adipocytes) |
| --- | --- | --- | --- | --- | --- | --- | --- | --- | --- | --- | --- | --- |
| CC1(C)CC(=O)c2c(nc3ccc(Br)cc3c2N)C1 [IVd] | > 500 | 5e-05 | 15 % to control | 20 % to control | 0 | – | – | – | – | – | – | – |
| Cc1ccc(C)c2c(N)c3c(nc12)CC(C)(C)CC3=O [IVf] | 40 ± 1.2 | 1.3e-05 | 0 % to control | 0 % to control | 0 | statistically significantly improved performance of normal rats | – | – | – | – | – | – |
| Cc1cc(C)c2nc3c(c(N)c2c1)C(=O)CC(C)(C)C3 [IVh] | > 500 | 3e-05 | 0 % to control | 20 % to control | 0 | – | – | – | – | – | – | – |
| Cc1ccc2nc3c(c(N)c2c1)C(=O)CC(C)(C)C3 [IVj] | 63.6 ± 8.7 | 3e-05 | 0 % to control | 30 % to control | 0 | – | – | – | – | – | – | – |
| CC1(C)C=Cc2c(nc3ccccc3c2NCc2ccccc2)C1 [VIIf] | – | – | 0 % to control | 0 % to control | – | – | 125.0 ± 15.5 | 0 % to control | – | – | – | – |
| CC1(C)C=Cc2c(nc3ccccc3c2NCc2ccccc2)C1 [VIIg] | – | – | 23 % to control | 0 % to control | – | – | 200.0 ± 21.9 | 0 % to control | – | – | – | – |
| CC1(C)C=Cc2c(nc3ccccc3c2NCc2ccccc2)C1 [VIIh] | – | – | 13 % to control | 28 % to control | – | – | 116.7 ± 10.9 | 20 % to control | – | – | – | – |
| CC1(C)C=Cc2c(nc3ccccc3c2NCc2ccccc2)C1 [VIIm] | – | – | 15 % to control | 15 % to control | – | – | 112.5 ± 10.9 | 25 % to control | – | – | – | – |
| CC1(C)C=Cc2c(nc3ccccc3c2NCc2ccccc2)C1 [VIIn] | – | – | 11 % to control | 46 % to control | – | – | 125.0 ± 10.9 | 40 % to control | – | – | – | – |
| CC1(C)C=Cc2c(nc3ccccc3c2NCc2ccccc2)C1 [VIIo] | – | – | 16 % to control | 0 % to control | – | statistically significantly improved performance of normal rats | 62.5 ± 7.7 | 40 % to control | – | – | – | – |
| CC1(C)C=Cc2c(nc3ccccc3c2NCc2ccccc2)C1 [VIIp] | – | – | 33 % to control | 21 % to control | – | statistically significantly improved performance of normal rats | – | 45 % to control | 75 ± 3.8 | – | – | – |
| CC1(C)C=Cc2c(nc3ccccc3c2NCc2ccccc2)C1 [VIIq] | – | – | 20 % to control | 30 % to control | – | statistically significantly improved performance of normal rats | 73.3 ± 4.4 | 45 % to control | – | – | – | – |
| CC1(C)C=Cc2c(nc3ccccc3c2NCc2ccccc2)C1 [VIIr] | – | – | 0 % to control | 0 % to control | – | statistically significantly improved performance of normal rats | 69.5 ± 5.6 | 45 % to control | – | – | – | – |
| CC1(C)C=Cc2c(nc3ccccc3c2NCc2ccccc2)C1 [VIIu] | – | – | 15 % to control | 12 % to control | – | – | 83.8 ± 5.6 | 0 % to control | – | – | – | – |
| CCCCNc1c2c(nc3ccccc13)CC(C)(C)CC2=O [Vs] | – | – | 0 % to control | 0 % to control | – | – | 165.8 ± 14.8 | 15 % to control | – | – | – | – |
| CCCCNc1c2c(nc3ccccc13)CC(C)(C)CC2=O [Vt] | – | – | 0 % to control | 0 % to control | – | – | 210.0 ± 9.8 | 0 % to control | – | – | – | – |
| CCCCNc1c2c(nc3ccccc13)CC(C)(C)CC2=O [Vu] | – | – | 20 % to control | 0 % to control | – | statistically significantly improved performance of normal rats | 210.0 ± 5.8 | 30 % to control | – | – | – | – |
| CCCCNc1c2c(nc3ccccc13)CC(C)(C)CC2=O [Vv] | – | – | 26 % to control | 15 % to control | – | – | 433.3 ± 7.8 | 25 % to control | – | – | – | – |
| CCCCNc1c2c(nc3ccccc13)CC(C)(C)CC2=O [Vw] | – | – | 10 % to control | 10 % to control | – | – | 125.0 ± 11.8 | 10 % to control | – | – | – | – |
| CCCCNc1c2c(nc3ccccc13)CC(C)(C)CC2=O [Vx] | – | – | – | – | – | – | 121.7 ± 15.5 | 25 % to control | – | – | – | – |
| CCCCNc1c2c(nc3ccccc13)CC(C)(C)CC2=O [Vy] | – | – | 0 % to control | 0 % to control | – | – | 210.0 ± 14.8 | 0 % to control | – | – | – | – |
| CCCCNc1c2c(nc3ccccc13)CC(C)(C)CC2=O [Vz] | – | – | 0 % to control | 0 % to control | – | – | 200.0 ± 21.9 | 20 % to control | – | – | – | – |
| CC(C)(Sc1cc(C(C)(C)C)c(O)c(C(C)(C)C)c1)Sc1cc(C(C)(C)C)c(O)c(C(C)(C)C)c1 [probucol, reference compound] | – | – | – | – | – | – | – | – | – | 1.10 | 0.84 | 0.69 |
